Test results as given in patent US20180353445A1, “METHODS AND COMPOSITIONS RELATING TO PROTEASOME INHIBITOR RESISTANCE” (Whitehead Institute for Biomedical Research, priority 2017, published 2018).

Assays:
Assay type in all cases: cell-based, human
[1] = tested on: IMR32 (reduced PSMD5) and Kelly neuroblastoma cells; assay: Viability of IMR32 versus Kelly neuroblastoma cells (CellTiter-Glo); details: ABT-263 versus more specific BCL2, BCL-XL and MCL-1 inhibitors
Procedure: To determine whether these compounds also differentially affect cells with reduced expression of PSDMS, IMR32 and Kelly cells were each cultured in the presence of ABT-263, disulfiram, or elesclomol across a range of concentrations. Cell viability was measured by CellTiter-Glo® Luminescent Cell Viability Assay 72 hours after addition of the compound to cells. The fold viability relative to culture in the absence of the compound was determined for each cell line. […] In the experiment shown in FIG. 24, the lowest lower concentration of ABT-263 and disulfiram tested was 1 uM.
ABT-263 targets several members of the BCL2 family, including BCL2 and BCL-XL.

T47D cells [2] = assay: The glucose/galactose drug screen; details: 10 mM Glucose or Galactose, Selleck anti cancer and natural product libraries
Procedure: We conducted a second set of drug screens to identify unique sensitivities conferred by the Hi-OXPHOS state using parental T47D breast cancer cells (without 19S subunit suppression). For this screen, we used the NPC and CDL libraries as they contained the greatest number of hits in the Lo19S screen. We tested over 800 compounds at multiple concentrations and measured their effects on relative cell growth/viability when cells were grown under aerobic glycolysis conditions (glucose-supplemented medium) or forced mitochondrial respiration conditions (galactose-supplemented medium).
The glucose/galactose drug screen—T47D cells growing in regular media were collected counted and after centrifugation cells were re-suspended in RPM1 media without glucose containing 10% dialyzed serum with the addition of either 10 mM glucose or 10 mM galactose, Cells were then plated at 1000 cells/well in 384-well opaque, white assay plates (Coming, N.Y.), 50 uL per well, and incubated overnight at 37°C./5% CO2. Application of the drug libraries and cell viability was executed as described above for the Lo19S drug screen.

[3] = tested on: T47D cells with doxycycline inducible PSMD2 KD (Lo19S) versus control cells; assay: Lo19S T47D drug screen (PSMD2 KD versus control cells, CellTiter-Glo); details: for viability of PSMD2 KD versus control cells: Selleck natural product library (NPC) and NIH bioactive compound library, selectivity less than for the anti-cancer library hits; for viability of PSMD2 KD versus control cells (log2 (shPSMD2/Control)): T47D, Lo19S state by dox-inducible PSMD2 shRNA, compound library screen, 72 h, CellTiter-Glo
Procedure: The effect of each drug on viability of cells was calculated by averaging the duplicate experiments. The data is plotted in FIG. 16 as the log2 of the ratio of viability of PSMD2 KD versus control cells (log2 (shPSMD2/Control)). […] The Selleck natural product library (NPC) comprising 502 compounds in 5 doses and the. NIH bioactive compound library that includes 731 compounds in 4 doses were also screened using the same system.
A deeper understanding of the proteasome inhibitor resistant state could yield insights into the molecular mechanisms activated by cells to cope with proteotoxic stress and elucidate new therapeutic strategies for cancer. With these goals in mind, we screened mechanistically diverse small molecule libraries to identify compound sensitivities altered by the Lo19S and Hi-OXPHOS states. An initial screen was conducted in the isogenic T47D model with transient induction of the Lo19S state as described above, We evaluated >4300 mechanistically well-defined compounds within 4 libraries. The compounds included approved cancer drugs (Selleck anti-cancer library: CDL), common natural products (Natural product library: NPC) and an ^-NIH bioactives library (NIH). Each of these compounds was tested at ≥4 concentrations. (Table S5, data not shown), An additional 2866 compounds from the Boston University's Chemical Methodology and Library Development (CMLD-BU) small molecule collection was screened at a single dose (BULL, see Table S5).
Generation of the Lo19S T47D cell line—For the generation of the T47D Tet-inducible PSMD2 knockdown cell line—the TRIPZ vector with an inducible shRNA targeting PSMD2 was purchased from Dharmacon (clone V3THS_403760). It was introduced to the T47D cells according to manufactures protocol and cells were selected with puromycin […] for one week. The cells were exposed to doxycycline for 24 hours and cells were FACS sorted for the top 10% of most RFP expressing cells (highest expression of shRNA). The cells were further cultured in the absence of doxycycline and PSMD2 knockdown was induced as specified in the text.
After 48 hours the cells were collected counted and plated (in the absence of dox) at 1000 cells/well in 384-well opaque, white assay plates (Coming, NY), 50 uL per well, and incubated overnight at 37° C./5% CO2. Compound stocks from the Cancer drug library containing 349 bioactive compounds that were arrayed in dose 10 nM, 100 nM, 1 uM, 10 uM (Selleck anti-cancer compound library L3000), the natural products library containing 502 compounds that were utilized in 5 doses (dilution of 1:1000 of 2ug/ml, 0.2 ug/ml, 0.002/ug/ml, 0.0002 ug/ml), the NIH bioactive library including 731 drugs in dose of 10 nM, 100 nM, 1 uM, 10 uM and the Boston University's CMLD (Chemical Methodology and Library Development) compound deck containing 2866 compounds in one dose (10 uM), including novel chemotypes that uniquely probe three-dimensional space by employing stereochemical and positional variation within the molecular framework as diversity elements in library design. 50 nl of compounds were pin-transferred (V&P Scientific, CA, pin tool mounted onto Tecan Freedom Evo 150 MCA96 head, Tecan, Calif.) into duplicate assay plates and incubated for 72 h. The DMSO content was 0.1% within each well, Per plate, there are 32 wells of DMSO vehicle control and 32 wells of positive control compounds. After three days of incubation, 10 uL of CellTiter-Glo (Promega, Wis.) was added to each well, incubated for 10 minutes and the luminescence output was read on the M1000 Infinite Pro plate reader (Tecan, Calif.).

T47D cells [4] = assay: Drug library screen (Selleck anti-cancer, NPC, NIH bioactive), PSMD2 KD vs control T47D cells; details: Selleck anti-cancer compound library screen
Procedure: Schematic representation of the drug screen setup. (FIG. 37A) 147D cells harboring a doxycycline-inducible PSMD2 shRNA were grown in the presence or absence of doxycycline for 48 hr. Cells were then collected, washed, and plated in the absence of doxycycline for 24 hr prior to exposure different compounds. Relative cell numbers were measured 3 days later.
The relative viability of the Lo19S versus control cells was calculated for replica experiments and the log2 of the ratio is plotted. […] The relative viability of the respiring cells (Hi-OXPHOS) (gal) versus the control cells (glu) was calculated for replica experiments and the log2 of the ratio is plotted.
After 48 hours the cells were collected, counted, and plated at 1000 cells/well in 384 well plates in duplicates for each cell line. Compounds from the Selleck Chemicals anti-cancer compound library (349 drugs in 4 concentrations; […]) were pinned the next day and viability was measured after 72 hours by the reduction of Resazurin (Ex=530 run, Em=590nin). (See FIG. 37A for schematic of screen.)

Cc1nn(C)c(COc2ccc(N3CCN(S(=O)(=O)N(C)C)CC3)cc2)c1-c1cccc2c(CCCOc3cccc4ccccc34)c(C(=O)O)n(CCN3CCOCC3)c12 [A-1210477]
preferential sensitivity of IMR32 versus Kelly cells, compared among BCL2 family inhibitors [1]: much greater for ABT-263

COc1cc2c(cc1OC)[C@@H]1C(=O)c3ccc4c(c3O[C@@H]1CO2)C=CC(C)(C)O4 [Degeulin]
relative viability change of cells grown in glucose versus galactose (T47D cells [2]): increased sensitivity

CN1C(=O)[C@]23CC4=CC=C[C@H](O)[C@H]4N2C(=O)[C@@]1(CO)SS3 [Gliotoxin]
viability of PSMD2 KD versus control cells [3]: selectively toxic to cells with PSMD2 knockdown

COc1ccc(-c2ccc3c(N4CCOCC4)nc(N4C[C@@H](C)O[C@@H](C)C4)nc3n2)cc1CO [Ku-0063794]
viability of PSMD2 KD versus control cells (log2 (shPSMD2/Control)) [3]: selectively reduce the viability of PSMD2 KD cells versus control cells
growth inhibition of T47D cells with reduced level of PSMD2 vs control T47D cells (T47D cells [4]): selectively inhibit growth

CC[C@@H]1/C=C/C=C/C[C@H](C)[C@H](O)[C@](C)(O)C(=O)[C@H](C)[C@@H](O)[C@H](C)C(=O)[C@H](C)[C@@H](O)[C@H](C)/C=C/C(=O)O[C@H]2[C@@H](C)[C@@H](CC1)O[C@@]1(CC[C@@H](C)[C@@H](C[C@H](C)O)O1)[C@@H]2C [Oligomycin A]
relative viability change of cells grown in glucose versus galactose (T47D cells [2]): increased sensitivity

Nc1ccc2ncnc(NCCc3ccc(Oc4ccccc4)cc3)c2c1 [QNZ]
relative viability change of cells grown in glucose versus galactose (T47D cells [2]): increased sensitivity

C=C(C)[C@H]1Cc2c(ccc3c2O[C@@H]2COc4cc(OC)c(OC)cc4[C@@H]2C3=O)O1 [Rotenone]
relative viability change of cells grown in glucose versus galactose (T47D cells [2]): increased sensitivity

Nc1nc(Cl)nc2c1ncn2[C@H]1C[C@H](O)[C@@H](CO)O1 [cladribine, 2-chlorodeoxyadenosine]
viability of PSMD2 KD versus control cells (log2 (shPSMD2/Control)) [3]: selectively reduce the viability of PSMD2 KD cells versus control cells
growth inhibition of T47D cells with reduced level of PSMD2 vs control T47D cells (T47D cells [4]): selectively inhibit growth

CCCCc1oc2ccccc2c1C(=O)c1cc(I)c(OCCN(CC)CC)c(I)c1 [cordarone]
viability of PSMD2 KD versus control cells [3]: selectively toxic to cells with PSMD2 knockdown
